Experimental data from patent publication US20060228384A1, “Control of biofilm with a biofilm inhibitor” (Sequoia Sciences, Inc., priority 2005, published 2006).

Legend:
[1] = tested on: biofilm; assay: Biofilm Inhibition Assay (compound library screening and analogs, methods as in Example 1); format: cell-based; conditions: tested as mentioned in Example 1
Source text: As is evident from the Biofilm Inhibiton Assay results presented in Table 1, one compound from Hit 39, SF382 confirmed biofilm inhibition after purification. […] Thus, the percentage of bacteria attached (within the biofilm) versus free-floating compared to untreated (negative) control has shifted toward free-floating upon addition of the treatment. Compound SF382 was particularly active, reducing the formation of biofilm by 50% compared to negative control. Compound SF382 is represented by structure (I).
(§1) In vitro biofilm inhibition was evaluated using a high-throughput method. This method uses standard pre-sterilized 96-well polystyrene microtiter plates. Each well was filled to a final volume of 200 μl. Initially, a concentrated compound solution is transferred into each well, except those which are used as controls, to achieve an appropriate testing concentration, typically 10 μg/ml. 150 μl of sterile media was then added, followed by 50 μl of bacterial inoculum. The plates were then placed on a shaker for 24 hours.
After the allotted growth time, the samples were removed from the shaker, rinsed and stained. The rinse involves first draining the wells, filling each well with PBS, and draining each well again. The rinse removes suspended cells from the system. […] The plate was then immediately analyzed with a microtiter plate reader. The samples and controls were analyzed in triplicate. […]

[2] = tested on: Propionibacterium acnes; conditions: each compound alone; cited from earlier work
[3] = tested on: Staphylococcus epidermidis ATCC 29641; assay: In vitro biofilm inhibition, 96-well plate, crystal violet (Example 1); format: cell-based; conditions: ATCC29641, 10 μg/mL, 24 hours
Procedure: as §1
(§2) After the allotted growth time, the samples were removed from the shaker, rinsed and stained. The rinse involves first draining the wells, filling each well with PBS, and draining each well again. The rinse removes suspended cells from the system. The biofilm was then stained with crystal violet for 20 minutes. The wells were each rinsed 4 times to remove any excess stain from the system and then eluted with 250 μl of ethanol. The elution step improves the detection of the stain during the analyses. The plate was then immediately analyzed with a microtiter plate reader. The samples and controls were analyzed in triplicate. Each plate contains negative and positive controls. The test samples were compared to the positive and negative controls to detect any reduction in the total amount of biofilm.

[4] = tested on: Pseudomonas aeruginosa PA01; assay: as above; format: cell-based; conditions: 10 μg/mL, 24 hours
Procedure: as §1, §2

[5] = tested on: Pseudomonas aeruginosa strain PAO1; assay: Rotating disk reactor biofilm with tobramycin, CFU enumeration (Example 5); format: cell-based; conditions: palmitoleic acid approx. 100 μg/ml 24 h then tobramycin 100 μg/ml 2 h; combined treatment compared to tobramycin alone
Procedure: Biofilm formation of P. aeruginosa was evaluated using a standardized biofilm method with a rotating disk reactor (RDR). This method provides a model resembling the formation of biofilms in cystic fibrosis patients. The rotating disk reactor consists of a one-liter glass beaker fitted with a drain spout. The bottom of the vessel contains a magnetically driven rotor with six 1.27 cm diameter coupons constructed from polystyrene. The rotor consists of a star-head magnetic stir bar upon which a disk was affixed to hold the coupons. The vessel with the stir bar was placed on a stir plate and rotated to provide fluid shear. A nutrient solution (AB Trace Medium with 0.3 mM glucose, see Table 3 below for composition) was added through a stopper in the top of the reactor at a flow rate of 5 ml/min. The reactor volume was approximately 180 ml and varied slightly between reactors depending on the placement of the drain spout and the rotational speed of the rotor. At a volume of 180 ml, the residence time of the reactors was 36 minutes. The reactors were operated at room temperature (c.a. 26° C.).
For each test, two RDRs were operated in parallel with one receiving palmitoleic acid and the other serving as an untreated control. […] The plates were incubated for 24 hours at 37° C. before colony forming units (CFU) were determined.

[6] = tested on: human hepatocellular carcinoma cells (HepG2); assay: In vitro cytotoxicity assessment (Example 7); format: cell-based; conditions: 30 or 60 μM, fluorometric detection of mitochondrial activity
Procedure: Palmitoleic acid was tested to assess its cytotoxicity in human hepatocellular carcinoma cells (HepG2). Palmitoleic acid was tested at two concentrations of 30 and 60 μM in HepG2 cells in triplicate. Gross cytotoxicity was assayed by fluorometric detection in response to mitochondrial activity according to Nociari M M, et al. (1998) J. Immunol. Met. 213:157. Chlorpromazine was used as a positive control.

[7] = tested on: clinical strains of Staphylococcus aureus; conditions: 100 ug/ml; cited from earlier work
[8] = tested on: Gram-negative bacteria such as Pseudomonas aeruginosa, and Escherichia coli; conditions: also P. acnes and several methicillin-resistant S. aureus strains; cited from earlier work
[9] = In vivo PK study in rats (Example 9); parameters: species or system rat; conditions: plasma
Procedure: Two groups of animals were prepared to evaluate palmitoleic acid. Palmitoleic acid was evaluated for two dose routes consisting of 50 mg/kg (IV) and 100 mg/kg (Oral). Three animals were assigned to the IV route group and two animals were assigned to the oral route group. Prior to dosing, a baseline blood sample was taken from each animal. At time zero, a single bolus dose of palmitoleic acid in 10% Cremophor (BASF) was given to each animal. Blood samples were taken from each animal at 1, 4, 12 and 24 hours post dosing. All blood samples were processed to plasma.
The plasma samples were extracted by adding internal standard at a concentration of 10 μg/mL to achieve a final concentration of 2 μg/mL when reconstituted. A solution of 80:20 methanol:chloroform was used to cause protein precipitation. The samples were then vortexed and centrifuged. The supernatant was decanted and the solvent was evaporated off. Samples were then analyzed and quantified by LC/MS.

[10] = tested on: Gram-positive bacteria; conditions: cited from earlier work
[11] = tested on: Streptococcus mutans 25175; assay: Biofilm growth inhibition in polycarbonate tubes (Example 8); format: cell-based; conditions: 80 μg/mL
[12] = tested on: Escherichia coli JM109; assay: Biofilm formation and growth of wild-type E. coli JM109 (Example 2); format: cell-based; conditions: compared to controls
Procedure: (§3) Biofilm inhibition experiments were conducted using an assay adapted from the reported protocol described in Pratt and Kolter, 1998, Molecular Microbiology, 30: 285-293; Li et al., 2001, J. Bacteriol., 183: 897-908. E. coli JM109 was grown in LB with or without 0.2% glucose in 96 well plates at 37° C. for two days without shaking. To quantify the biofilm mass, the suspension culture was poured out and the biofilm was washed three times with water. The biofilm was stained with 0.1% crystal violet for 20 minutes. The plates were then washed three times with water. OD reading at 540 nm was measured to quantify the biofilm mass at the bottom of the wells. Then 95% ethanol was added to dissolve the dye at the bottom and on the wall and the OD reading at 540 nm was measured to quantify the total biofilm mass. To study the overall effect of palmitoleic acid (3.6 mg/mL in 100% ethanol as stock solution), it was added with the inoculation and a time course of biofilm mass was measured. To study if the compound can cause biofilm removal, it was added one day after inoculation. Appropriate amounts of 100% ethanol were added to each sample to eliminate the effect of solvent. Four plates were prepared for each study to give a time course. Each condition had 3-4 replicates on each plate.

[13] = tested on: Escherichia coli UTI89; assay: Biofilm inhibition dose response, clinical strain (Example 4); format: cell-based; conditions: LB media, compared to controls
Procedure: as §3
Dose response experiments were conducted on palmitoleic acid as described in Example 2 at 4, 8, 16, and 32 ug/mL with E. coli UT189 in LB media.

[14] = tested on: methicillin-resistant Staphylococcus aureus 78-13607A; assay: Antibacterial effect, NCCLS procedures (Example 3); format: cell-based; conditions: studied at 32 μg/mL, read-out: MIC (minimal inhibitory concentration)
Procedure: (§4) Using the appropriate NCCLS procedures, the antibacterial effect of palmitoleic acid on two strains of methicillin-resistant Staphylococcus aureus (ATCC 33591 and 78-13607A) was studied at 32 μg/mL.

[15] = tested on: methicillin-resistant Staphylococcus aureus ATCC 33591; assay: Antibacterial effect, NCCLS procedures (Example 3); format: cell-based; conditions: ATCC33591, studied at 32 μg/mL, read-out: MIC (minimal inhibitory concentration)
Procedure: as §4

[16] = tested on: P. acnes; conditions: 125 ug/ml; cited from earlier work
[17] = tested on: Streptococcus sobrinus 6715; assay: Biofilm growth inhibition in polycarbonate tubes (Example 8); format: cell-based; conditions: 80 μg/mL

CCCCCCCCCCCCCCCC(=O)O [palmitic acid]
inhibition of the formation of biofilms [1]: does not inhibit the formation of biofilms

CCCCCC/C=C\CCCCCCCC(=O)O [palmitoleic acid]
growth inhibition, compound alone [2]: neither compound alone could effectively inhibit the growth | inhibition at 10 µg/mL [3]: 80% | inhibition at 10 µg/mL [4]: 55% | reduction of CFUs [5]: 60% | cytotoxicity [6]: not observed | inhibitory effect [7]: no inhibitory effect | growth inhibition [8]: could not inhibit the growth | AUC ([9]; IV 50 mg/kg single bolus in 10% Cremophor): 123 µg/mL/h | AUC ([9]; oral 100 mg/kg single dose in 10% Cremophor): 219.71 µg/mL/h | typical minimal inhibitory concentration (MIC) value ([10]; growth of Gram-positive bacteria): 10 to 20 mg/L | synergistic effect with mupirocin ([10]; palmitoleic acid and mupirocin against Gram-positive bacteria): no synergistic effect was observed | inhibition at 80 µg/mL [11]: > 75% | inhibition of total biofilm formation (reduction) ([12]; approximately 20 μM, added with inoculation): about 60% | inhibitory effect on growth [12]: no inhibitory effect | inhibition at 4 µg/mL ([13]; 4 μg/mL): ~10% | inhibition at 8 µg/mL ([13]; 8 μg/mL): ~55% | inhibition at 16 µg/mL ([13]; 16 μg/mL): ~70% | inhibition at 32 µg/mL ([13]; 32 μg/mL): ~80% | MIC [14]: > 32 mg/L | MIC [15]: > 32 mg/L | growth inhibition [16]: failed to inhibit the growth | inhibition at 80 µg/mL [17]: > 75%

Cc1ncc([N+](=O)[O-])n1CCO [metranidazole, reference compound]
growth inhibition, compound alone [2]: neither compound alone could effectively inhibit the growth
